Values quoted from earlier work as cited in patent US7419990B2, “Piperidine derivatives as melanocortin-4 receptor agonists” (Merck & Co., Inc., priority 2003, dated 2008).

Tests used:
erectile dysfunction = conditions: for duration of effect / onset of action: after an oral dose; for share of patients with adequate response: oral
[1] = system: psychogenic erectile dysfunction

Compound | duration of effect (erectile dysfunction) | onset of action (erectile dysfunction) [min] | share of patients with adequate response (erectile dysfunction) | duration of action ([1]; in vivo) | time to onset of erection ([1]; in vivo) [min] | response rate ([1]; injected intramuscularly or subcutaneously) [%] | absorption into the systemic circulation ([1]; oral route)
Cc1ccc(N(CC2=NCCN2)c2cccc(O)c2)cc1 [phentolamine] | 2 h | 5 to 30 | 35-40% |  |  |  | 
CCCc1nn(C)c2c(=O)[nH]c(-c3cc(S(=O)(=O)N4CCN(C)CC4)ccc3OCC)nc12 [sildenafil] | about 4 hours | 30 to 60 | about 70% |  |  |  | 
Ac-Nle-c[Asp-His-DPhe-Arg-Trp-Lys]-NH2 [MT-II] |  |  |  | approximately 2.5 hours | 10 to 20 | 75 | not absorbed into the systemic circulation
